From patent US7973061B2, “Anaplastic lymphoma kinase modulators and methods of use” (Exelixis, Inc., priority 2004, dated 2011)

Biological target: T1, ALK (baculovirus expressed human ALK kinase domain F1098-K1410) (Homo sapiens, UniProt Q9UM73)
T1 construct: human ALK kinase domain F1098-K1410; made in house
Assay: biochemical
Settings: 1 μM ATP, 4 μM poly-AEKY, 12 nM ALK, 2 hours at ambient temperature; read-out: ALK IC50
Procedure: Kinase activity and compound inhibition are investigated using one or more of the three assay formats described below. The ATP concentrations for each assay are selected to be close to the Michaelis-Menten constant (KM) for each individual kinase. Dose-response experiments are performed at 10 different inhibitor concentrations in a 384-well plate format. […] Y=Min+(Max−Min)/(1+(X/IC50)^H) Equation (2) Luciferase-Coupled Chemiluminescent Kinase Assay
ALK biochemical activity was assessed using a Luciferase-Coupled Chemiluminescent Kinase assay (LCCA) format in which kinase activity was measured as the percent ATP remaining following the kinase reaction. ATP remaining after the kinase reaction was detected by luciferase-luciferin-coupled chemiluminescence. […] The mixture was incubated at ambient temperature for 2 hours after which 20 μL luciferase-luciferin mix was added and the chemiluminescent signal read using a Wallac Victor^2 reader. […] Consumption of ATP by ALK can be quantified and utilized as a measure of inhibition of ALK activity by compounds described herein. By employing serial dilutions of compounds to be tested, the ability of test compounds to inhibit ALK activity can be determined.

T1 sequence (Q9UM73 1098-1410): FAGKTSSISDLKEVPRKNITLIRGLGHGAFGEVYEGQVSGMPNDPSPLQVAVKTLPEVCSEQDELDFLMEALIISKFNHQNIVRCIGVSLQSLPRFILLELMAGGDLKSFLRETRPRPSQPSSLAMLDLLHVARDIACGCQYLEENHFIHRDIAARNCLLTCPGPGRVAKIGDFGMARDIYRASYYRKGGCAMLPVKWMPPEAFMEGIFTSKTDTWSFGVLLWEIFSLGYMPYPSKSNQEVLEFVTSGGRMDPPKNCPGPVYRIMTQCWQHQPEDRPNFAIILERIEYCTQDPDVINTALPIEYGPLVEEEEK

Structure (SMILES)	IC50 [nM]
O=C(NCCc1cccc(Cl)c1)c1csc(CNC(=O)c2cccnc2Oc2ccc(Cl)cc2)n1 [Entry 62, N-{[4-({[2-(3-chlorophenyl)ethyl]amino}carbonyl)-1,3-thiazol-2-yl]methyl}-2-[(4-chlorophenyl)oxy]pyridine-3-carboxamide]	50 to 500
O=C(COc1ccc(OC(F)(F)F)cc1)NCc1nc(C(=O)NCc2ccccc2C(F)(F)F)cs1 [Entry 63, 2-({[({4-[(trifluoromethyl)oxy]phenyl}oxy)acetyl]amino}methyl)-N-{[2-(trifluoromethyl)phenyl]methyl}-1,3-thiazole-4-carboxamide]	50 to 500
O=C(COc1ccc(OC(F)(F)F)cc1)NCc1nc(C(=O)NCc2ccc(Cl)cc2Cl)cs1 [Entry 64, N-[(2,4-dichlorophenyl)methyl]-2-({[({4-[(trifluoromethyl)oxy]phenyl}oxy)acetyl]amino}methyl)-1,3-thiazole-4-carboxamide]	50 to 500
CCC(NC(=O)c1csc(CNC(=O)COc2ccc(OC(F)(F)F)cc2)n1)c1ccccc1 (centres unmarked) [Entry 65, N-(1-phenylpropyl)-2-({[({4-[(trifluoromethyl)oxy]phenyl}oxy)acetyl]amino}methyl)-1,3-thiazole-4-carboxamide]	50 to 500
O=C(COc1ccc(OC(F)(F)F)cc1)NCc1nc(C(=O)N2CCN(c3c(Cl)cncc3Cl)CC2)cs1 [Entry 66, N-[(4-{[4-(3,5-dichloropyridin-4-yl)piperazin-1-yl]carbonyl}-1,3-thiazol-2-yl)methyl]-2-({4-[(trifluoromethyl)oxy]phenyl}oxy)acetamide]	50 to 500
CC(C)(C)c1ccc(OCC(=O)NCc2nc(C(=O)NCCc3cccc(Cl)c3)cs2)cc1 [Entry 67, N-[2-(3-chlorophenyl)ethyl]-2-{[({[4-(1,1-dimethylethyl)phenyl]oxy}acetyl)amino]methyl}-1,3-thiazole-4-carboxamide]	50 to 500
CCOc1ccc(CCNC(=O)c2csc(CNC(=O)COc3ccc(OC(F)(F)F)cc3)n2)cc1 [Entry 68, N-{2-[4-(ethyloxy)phenyl]ethyl}-2-({[({4-[(trifluoromethyl)oxy]phenyl}oxy)acetyl]amino}methyl)-1,3-thiazole-4-carboxamide]	50 to 500
O=C(COc1ccc(OC(F)(F)F)cc1)NCc1nc(C(=O)NCc2cc(Cl)cc(Cl)c2)cs1 [Entry 69, N-[(3,5-dichlorophenyl)methyl]-2-({[({4-[(trifluoromethyl)oxy]phenyl}oxy)acetyl]amino}methyl)-1,3-thiazole-4-carboxamide]	50 to 500
NC(=O)[C@@H](Cc1ccccc1)NC(=O)c1csc(CNC(=O)COc2ccc(OC(F)(F)F)cc2)n1 [Entry 70, Nalpha-{[2-({[({4-[(trifluoromethyl)oxy]phenyl}oxy)acetyl]amino}methyl)-1,3-thiazol-4-yl]carbonyl}-D-phenylalaninamide]	50 to 500
O=C(COc1ccc(OC(F)(F)F)cc1)NCc1nc(C(=O)NCCSCc2ccco2)cs1 [Entry 71, N-{2-[(furan-2-ylmethyl)thio]ethyl}-2-({[({4-[(trifluoromethyl)oxy]phenyl}oxy)acetyl]amino}methyl)-1,3-thiazole-4-carboxamide]	50 to 500
CC(C)c1ccc(OCC(=O)NCc2nc(C(=O)NCCc3cccc(Cl)c3)cs2)cc1 [Entry 72, N-[2-(3-chlorophenyl)ethyl]-2-{[({[4-(1-methylethyl)phenyl]oxy}acetyl)amino]methyl}-1,3-thiazole-4-carboxamide]	50 to 500
O=C(COc1ccc(OC(F)(F)F)cc1)NCc1nc(C(=O)NCc2ccc(Cl)c(C(F)(F)F)c2)cs1 [Entry 73, N-{[4-chloro-3-(trifluoromethyl)phenyl]methyl}-2-({[({4-[(trifluoromethyl)oxy]phenyl}oxy)acetyl]amino}methyl)-1,3-thiazole-4-carboxamide]	50 to 500
CCCOCCCNC(=O)c1csc(CNC(=O)COc2ccc(OC(F)(F)F)cc2)n1 [Entry 74, N-[3-(propyloxy)propyl]-2-({[({4-[(trifluoromethyl)oxy]phenyl}oxy)acetyl]amino}methyl)-1,3-thiazole-4-carboxamide]	50 to 500
O=C(COc1ccc(OC(F)(F)F)cc1)NCc1nc(C(=O)NCc2ccc(Cl)c(Cl)c2)cs1 [Entry 75, N-[(3,4-dichlorophenyl)methyl]-2-({[({4-[(trifluoromethyl)oxy]phenyl}oxy)acetyl]amino}methyl)-1,3-thiazole-4-carboxamide]	50 to 500
O=C(COc1ccc(OC(F)(F)F)cc1)NCc1nc(C(=O)NC2CCCCCCC2)cs1 [Entry 76, N-cyclooctyl-2-({[({4-[(trifluoromethyl)oxy]phenyl}oxy)acetyl]amino}methyl)-1,3-thiazole-4-carboxamide]	50 to 500
O=C(COc1ccc(OC(F)(F)F)cc1)NCc1nc(C(=O)NCCc2ccccn2)cs1 [Entry 77, N-(2-pyridin-2-ylethyl)-2-({[({4-[(trifluoromethyl)oxy]phenyl}oxy)acetyl]amino}methyl)-1,3-thiazole-4-carboxamide]	50 to 500
COc1cccc(CNC(=O)c2csc(CNC(=O)Nc3ccc(C(C)C)cc3)n2)c1OC [Entry 78, N-{[2,3-bis(methyloxy)phenyl]methyl}-2-{[({[4-(1-methylethyl)phenyl]amino}carbonyl)amino]methyl}-1,3-thiazole-4-carboxamide]	50 to 500
O=C(COc1ccc(OC(F)(F)F)cc1)NCc1nc(C(=O)N[C@H]2CCCc3ccccc32)cs1 [Entry 79, N-[(1S)-1,2,3,4-tetrahydronaphthalen-1-yl]-2-({[({4-[(trifluoromethyl)oxy]phenyl}oxy)acetyl]amino}methyl)-1,3-thiazole-4-carboxamide]	50 to 500
COc1ccccc1CCNC(=O)c1csc(CNC(=O)COc2ccc(OC(F)(F)F)cc2)n1 [Entry 80, N-{2-[2-(methyloxy)phenyl]ethyl}-2-({[({4-[(trifluoromethyl)oxy]phenyl}oxy)acetyl]amino}methyl)-1,3-thiazole-4-carboxamide]	50 to 500

Continued, values first:

IC50 [nM]	Structure (SMILES)
50 to 500	COc1ccc(OCCNC(=O)c2csc(CNC(=O)COc3ccc(OC(F)(F)F)cc3)n2)cc1 [Entry 81, N-(2-{[4-(methyloxy)phenyl]oxy}ethyl)-2-({[({4-[(trifluoromethyl)oxy]phenyl}oxy)acetyl]amino}methyl)-1,3-thiazole-4-carboxamide]
50 to 500	COc1ccccc1CNC(=O)c1csc(CNC(=O)COc2ccc(I)cc2)n1 [Entry 82, 2-[({[(4-iodophenyl)oxy]acetyl}amino)methyl]-N-{[2-(methyloxy)phenyl]methyl}-1,3-thiazole-4-carboxamide]
50 to 500	O=C(COc1ccc(OC(F)(F)F)cc1)NCc1nc(C(=O)NCCc2ccc(Cl)cc2)cs1 [Entry 83, N-[2-(4-chlorophenyl)ethyl]-2-({[({4-[(trifluoromethyl)oxy]phenyl}oxy)acetyl]amino}methyl)-1,3-thiazole-4-carboxamide]
50 to 500	O=C(COc1ccc(OC(F)(F)F)cc1)NCc1nc(C(=O)NC2CCN(Cc3ccccc3)CC2)cs1 [Entry 84, N-[1-(phenylmethyl)piperidin-4-yl]-2-({[({4-[(trifluoromethyl)oxy]phenyl}oxy)acetyl]amino}methyl)-1,3-thiazole-4-carboxamide]
50 to 500	CC(NC(=O)c1csc(CNC(=O)COc2ccc(OC(F)(F)F)cc2)n1)c1cccc2ccccc12 (centres unmarked) [Entry 85, N-(1-naphthalen-1-ylethyl)-2-({[({4-[(trifluoromethyl)oxy]phenyl}oxy)acetyl]amino}methyl)-1,3-thiazole-4-carboxamide]
50 to 500	CC(NC(=O)c1csc(CNC(=O)COc2ccc(OC(F)(F)F)cc2)n1)c1ccc(F)cc1 (centres unmarked) [Entry 86, N-[1-(4-fluorophenyl)ethyl]-2-({[({4-[(trifluoromethyl)oxy]phenyl}oxy)acetyl]amino}methyl)-1,3-thiazole-4-carboxamide]
50 to 500	CC1CCCCC1NC(=O)c1csc(CNC(=O)COc2ccc(OC(F)(F)F)cc2)n1 (centres unmarked) [Entry 87, N-(2-methylcyclohexyl)-2-({[({4-[(trifluoromethyl)oxy]phenyl}oxy)acetyl]amino}methyl)-1,3-thiazole-4-carboxamide]
50 to 500	C[C@@H]1[C@H]2C[C@@H](C[C@H]1NC(=O)c1csc(CNC(=O)COc3ccc(OC(F)(F)F)cc3)n1)C2(C)C [Entry 88, 2-({[({4-[(trifluoromethyl)oxy]phenyl}oxy)acetyl]amino}methyl)-N-[(1R,2R,3R,5S)-2,6,6-trimethylbicyclo[3.1.1]hept-3-yl]-1,3-thiazole-4-carboxamide]
50 to 500	C[C@@H]1[C@@H](NC(=O)c2coc(CNC(=O)COc3ccc(OC(F)(F)F)cc3)n2)C[C@H]2C[C@@H]1C2(C)C [Entry 89, 2-({[({4-[(trifluoromethyl)oxy]phenyl}oxy)acetyl]amino}methyl)-N-[(1S,2S,3S,5R)-2,6,6-trimethylbicyclo[3.1.1]hept-3-yl]-1,3-oxazole-4-carboxamide]
50 to 500	O=C(COc1ccc(OC(F)(F)F)cc1)NCc1nc(C(=O)NCCc2ccc(Br)cc2)cs1 [Entry 90, N-[2-(4-bromophenyl)ethyl]-2-({[({4-[(trifluoromethyl)oxy]phenyl}oxy)acetyl]amino}methyl)-1,3-thiazole-4-carboxamide]
